Publication PMC7151704, “4-Amino-1,2,4-triazole-3-thione as a Promising Scaffold for the Inhibition of Serine and Metallo-β-Lactamases” (Pharmaceuticals, 2020)

How the values were obtained:
Assay in all cases: nitrocefin hydrolysis, spectrophotometric; Ki from IC50 by Cheng-Prusoff
Type in all cases: biochemical
[1] = target: T1, VIM-1 (Pseudomonas aeruginosa, UniProt Q9XAY4)
T1 construct: gene blaVIM; recombinant untagged, pET-24a(+) blaVIM-1 (pBPAQND2009), E. coli BL21(DE3); High Q and Superdex 75; zinc-supplemented buffers

[2] = target: T2, IMP-1 (Pseudomonas aeruginosa, UniProt Q79MP6)
T2 construct: gene blaIMP-1; codon-optimised wild type gene, pETite N-His SUMO Kan, E. coli Lemo21(DE3); His-SUMO cleaved by SUMO protease; IMAC and Superose 12
T2 sequence (Q79MP6 19-246 limits assumed): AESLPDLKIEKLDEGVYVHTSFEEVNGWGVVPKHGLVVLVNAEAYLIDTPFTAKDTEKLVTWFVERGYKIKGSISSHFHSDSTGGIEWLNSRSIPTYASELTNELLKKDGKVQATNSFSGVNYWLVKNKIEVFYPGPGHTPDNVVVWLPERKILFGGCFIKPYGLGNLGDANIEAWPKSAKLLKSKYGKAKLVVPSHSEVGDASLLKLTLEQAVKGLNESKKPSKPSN

[3] = target: T3, KPC-2 (Klebsiella pneumoniae, UniProt Q9F663)
T3 construct: recombinant, 'full-length KPC-2 enzyme'
T3 sequence (Q9F663 25-293 limits assumed): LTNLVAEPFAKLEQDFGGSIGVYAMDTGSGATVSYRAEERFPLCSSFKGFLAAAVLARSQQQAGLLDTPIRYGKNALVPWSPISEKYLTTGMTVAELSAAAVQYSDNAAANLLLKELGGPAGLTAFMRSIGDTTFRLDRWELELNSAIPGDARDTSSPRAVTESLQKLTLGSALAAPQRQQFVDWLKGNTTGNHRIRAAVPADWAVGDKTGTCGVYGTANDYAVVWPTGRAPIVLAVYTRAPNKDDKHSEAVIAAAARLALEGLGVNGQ
Excerpt: nitrocefin hydrolysis, spectrophotometric; Ki from IC50 by Cheng-Prusoff on KPC-2

SMILES | Ki [1] [µM] | Ki [2] [µM] | Ki [3] [µM]
S=c1[nH]ncn1NCc1ccc2c(c1)OCO2 [1f, 4-((benzo[d][1,3]dioxol-5-ylmethyl)amino)-2,4-dihydro-3H-1,2,4-triazole-3-thione] | 120 ± 4 | 125 ± 5 | 138 ± 3
Sc1nncn1/N=C/c1ccc(Br)cc1 [2b, 4-((4-bromobenzylidene)amino)-2,4-dihydro-3H-1,2,4-triazole-3-thione] | 58 ± 2 | 285 ± 13 | 158 ± 7
S=c1[nH]ncn1/N=C/c1c[nH]c2ccccc12 [2g, 4-(((1H-indol-3-yl)methylene)amino)-2,4-dihydro-3H-1,2,4-triazole-3-thione] | 95 ± 3 | 104 ± 4 | 139 ± 4
CCN(CC)c1ccc(CNn2cn[nH]c2=S)cc1 [1d, 4-((4-(diethylamino)benzyl)amino)-2,4-dihydro-3H-1,2,4-triazole-3-thione] | 224 ± 11 | 173 ± 6 | 263 ± 13
